Laboratory results taken from patent US12472164B2, “Masitinib for the treatment of sickle cell disease” (AB SCIENCE, priority 2019, dated 2025).

Experiments:
[1] = tested on: SCD (HbSS mice), Townes transgenic mouse model; assay: Substance P-induced vaso-occlusive crisis (VOC) occurrence and overall survival in Townes transgenic sickle mice; assay type: in vivo
From the text: The Townes transgenic mouse model was utilized for this study (Wu L C et al., Blood 2006; 108:1183-1188). A total of 18 mice were assigned to 3 treatment groups; namely: SCD (HbSS mice) treated with masitinib (SCD Masitinib—intervention group), untreated SCD mice (SCD—positive control group), and WT mice (WT—negative control group).
The HbSS-Townes mouse model was created on a mixed genetic background in which the murine adult α-globin genes were replaced with the human α-globin gene (genotype: Hba hα/hα) and the murine adult β-globin genes were replaced with human sickle βS- and fetal Aγ-globin gene fragments linked together (genotype: Hbb hAγβS/hAγβS) (Nguyen J, et al., Blood 2014; 124(21):4916). HbSS-Townes mice have anemia, a shortened red blood cell half-life of 2.5 days and a severe disease phenotype. Control HbAA-Townes mice were created by replacing the murine globin genes with human α-globin gene (genotype: Hba hα/hα) and linked human βA- and fetal Aγ-globins (genotype: Hbb hAγβA/hAγβA).
Mice were administered freshly prepared solutions of substance P (4 to 40 mg/kg) via intravenous injection.
Mice in the intervention group were administered masitinib at 100 mg/kg/day via gavage for 4 days prior to injection of substance P. […]
Vaso-occlusive crisis (VOC) occurrence and overall survival were analyzed in the mice. […]

[2] = tested on: lung tissue of SCD (HbSS) Townes mice; assay: Lung tissue histology (hematoxylin and eosin; anti-FcεRIα immunostaining) of SCD mice after substance P injection; assay type: in vivo; details: masitinib 100 mg/kg/day via gavage for 4 days prior to substance P
Description: The Townes transgenic mouse model was utilized for this study (Wu L C et al., Blood 2006; 108:1183-1188). A total of 18 mice were assigned to 3 treatment groups; namely: SCD (HbSS mice) treated with masitinib (SCD Masitinib—intervention group), untreated SCD mice (SCD—positive control group), and WT mice (WT—negative control group). Mice were administered freshly prepared solutions of substance P (4 to 40 mg/kg) via intravenous injection. Mice in the intervention group were administered masitinib at 100 mg/kg/day via gavage for 4 days prior to injection of substance P. Lung tissue was processed immediately after death by cervical dislocation and fixed in 10% buffered formalin. For analysis of the lung tissue cellular structure, samples were stained with hematoxylin and eosin. For analysis of mast cell infiltration, samples were stained with an anti-FcεRIα primary antibody and a fluorophore secondary antibody. The cause of death was then analyzed. […] Lung tissue sections were stained with hematoxylin and eosin. For immunofluorescence, lung tissue sections were incubated with an anti-FcεRIα primary antibody and then stained with a fluorophore secondary antibody.

Cc1ccc(NC(=O)c2ccc(CN3CCN(C)CC3)cc2)cc1Nc1nc(-c2cccnc2)cs1 [masitinib, 4-(4-methylpiperazin-1-ylmethyl)-N-[4-methyl-3-(4-pyridin-3ylthiazol-2-ylamino)phenyl]benzamide]
Overall survival (death) ([1]; SCD mice pretreated with masitinib 100 mg/kg/day via gavage for 4 days prior to injection of substance P, 83% of untreated SCD mice died in the first 3 hours (FIG. 1)): none died
Vaso-occlusive crisis (VOC) occurrence ([1]; SCD mice pretreated with masitinib 100 mg/kg/day via gavage for 4 days prior to intravenous injection of substance P, all untreated SCD mice experienced VOC): did not present any VOC
Infiltration of lung tissue by FcεRI-positive cells (mast cells) ([2]; anti-FcεRIα immunofluorescence, versus untreated SCD mice (FIGS. 2A to 2H)): to a far lesser degree
Development of acute chest syndrome (ACS) ([2]; concluded from limited FcεRI-positive cell infiltration and absent or limited edema): did not develop ACS
Lung edema ([2]; hematoxylin and eosin staining, versus untreated SCD mice): reduced
